# Values quoted from earlier work in patent US8337481B2, “Method for treating otitis externa” (priority 2005, dated 2012).
row,Biological Half Life,SMILES
1,18-36 Hours,"C[C@H]1C[C@@H]2[C@H]([C@@H](O)C[C@@]3(C)[C@H]2CC[C@]3(O)C(=O)CO)[C@@]2(C)C=CC(=O)C=C12 [Methyl-prednisolone, methylprednisolone]"
2,8-12 Hours,C[C@]12CCC(=O)C=C1CC[C@@H]1[C@@H]2[C@@H](O)C[C@@]2(C)[C@H]1CC[C@]2(O)C(=O)CO [hydrocortisone]
3,18-36 Hours,C[C@]12C=CC(=O)C=C1CC[C@@H]1[C@@H]2[C@@H](O)C[C@@]2(C)[C@H]1CC[C@]2(O)C(=O)CO [prednisolone]
4,18-36 Hours,C[C@]12C=CC(=O)C=C1CC[C@H]1[C@@H]3C[C@@H](O)[C@](O)(C(=O)CO)[C@@]3(C)C[C@H](O)[C@@]12F [triamcinolone]
